Laboratory results reported in ChEMBL document CHEMBL1129909, “Potent non-peptidic dual inhibitors of endothelin-converting enzyme and neutral endopeptidase 24.11” (Bioorg Med Chem Lett, 1997).

Assays:
[1] = molecular target: T1, Endothelin-converting enzyme 1 (Homo sapiens) (UniProt P42892); assay: In vitro inhibition to recombinant human endothelin converting enzyme; set-up: concentration or dose not given beside the values; details: concentration not given here
T1 sequence (whole entry): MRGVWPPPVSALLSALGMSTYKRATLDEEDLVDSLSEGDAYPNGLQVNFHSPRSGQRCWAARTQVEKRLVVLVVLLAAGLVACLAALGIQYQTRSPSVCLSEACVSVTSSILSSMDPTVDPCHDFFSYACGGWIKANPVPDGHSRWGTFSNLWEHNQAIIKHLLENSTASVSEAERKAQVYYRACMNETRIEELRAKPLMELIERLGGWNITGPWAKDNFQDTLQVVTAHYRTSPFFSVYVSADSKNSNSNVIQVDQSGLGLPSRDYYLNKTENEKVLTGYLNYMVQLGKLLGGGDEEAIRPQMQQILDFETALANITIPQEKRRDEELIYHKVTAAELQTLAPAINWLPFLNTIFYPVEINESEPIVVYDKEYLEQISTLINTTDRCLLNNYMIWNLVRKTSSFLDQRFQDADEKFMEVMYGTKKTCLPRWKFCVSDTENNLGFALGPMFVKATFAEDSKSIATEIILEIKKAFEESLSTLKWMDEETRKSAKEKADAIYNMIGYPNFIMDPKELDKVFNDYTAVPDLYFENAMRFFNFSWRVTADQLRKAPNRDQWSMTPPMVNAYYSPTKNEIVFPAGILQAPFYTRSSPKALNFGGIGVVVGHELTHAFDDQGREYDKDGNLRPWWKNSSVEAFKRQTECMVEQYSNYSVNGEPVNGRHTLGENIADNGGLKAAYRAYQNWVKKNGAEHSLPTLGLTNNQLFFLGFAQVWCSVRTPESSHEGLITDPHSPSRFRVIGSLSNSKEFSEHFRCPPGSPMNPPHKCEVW

[2] = molecular target: T2, Endothelin-converting enzyme 1 (Homo sapiens, UniProt P42892); assay: In vitro inhibition against recombinant human Endothelin converting enzyme 1 activity
T2 sequence (P42892 whole entry): T1 sequence (whole entry)

[3] = molecular target: Neprilysin (Homo sapiens, UniProt P08473)
Neprilysin, sequence (P08473 whole entry): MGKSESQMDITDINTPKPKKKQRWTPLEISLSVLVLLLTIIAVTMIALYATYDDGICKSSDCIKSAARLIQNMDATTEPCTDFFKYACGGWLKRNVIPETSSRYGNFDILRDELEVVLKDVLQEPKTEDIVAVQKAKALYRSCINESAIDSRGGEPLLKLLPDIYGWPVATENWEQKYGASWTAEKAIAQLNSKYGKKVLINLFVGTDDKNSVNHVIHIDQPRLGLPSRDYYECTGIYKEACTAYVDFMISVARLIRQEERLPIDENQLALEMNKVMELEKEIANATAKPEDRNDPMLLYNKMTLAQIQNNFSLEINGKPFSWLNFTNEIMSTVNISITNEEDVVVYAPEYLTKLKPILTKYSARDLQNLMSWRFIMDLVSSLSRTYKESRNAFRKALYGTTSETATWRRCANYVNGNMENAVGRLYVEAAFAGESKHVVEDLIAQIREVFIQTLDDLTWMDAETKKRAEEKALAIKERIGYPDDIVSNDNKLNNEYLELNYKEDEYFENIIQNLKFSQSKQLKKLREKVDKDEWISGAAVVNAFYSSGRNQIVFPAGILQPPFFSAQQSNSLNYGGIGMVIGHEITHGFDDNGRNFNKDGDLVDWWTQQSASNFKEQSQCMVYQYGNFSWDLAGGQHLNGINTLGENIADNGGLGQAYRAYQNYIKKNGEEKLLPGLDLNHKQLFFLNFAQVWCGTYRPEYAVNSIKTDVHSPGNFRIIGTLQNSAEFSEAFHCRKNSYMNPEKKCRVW
Description: Inhibition of neutral endopeptidase 24.11(NEP)

Row | SMILES | inhibition [1] | IC50 [2] | IC50 [3]
1 | O=P(O)(O)CN[C@H](Cc1ccc(-c2ccccc2)cc1)c1nnn[nH]1 | 0% |  | 
2 | O=P(O)(O)C(Cc1ccc2ccccc2c1)N[C@H](Cc1ccc(-c2ccccc2)cc1)c1nnn[nH]1 (some centres not stated) | 47% | 1400 nM | 
3 | O=P(O)(O)CC(Cc1ccc(-c2ccccc2)cc1)c1nnn[nH]1 (configuration not stated) | 8% |  | 
4 | O=P(O)(O)C(Cc1ccc2ccccc2c1)N[C@@H](Cc1ccc(-c2ccccc2)cc1)c1nnn[nH]1 (some centres not stated) [CGS-314447] | 91% | 45 nM | 
5 | O=P(O)(O)C(N[C@@H](Cc1ccc(-c2ccccc2)cc1)c1nnn[nH]1)c1cccc2ccccc12 (some centres not stated) | 14% | > 1000 nM | 
6 | O=P(O)(O)C(Cc1cccc2ccccc12)N[C@H](Cc1ccc(-c2ccccc2)cc1)c1nnn[nH]1 (some centres not stated) | 85% | 160 nM | 
7 | O=C(O)C[C@H](Cc1ccc(-c2ccccc2)cc1)NCP(=O)(O)O | 0% |  | 
8 | O=P(O)(O)C(Cc1cccc2c1OCO2)N[C@@H](Cc1ccc(-c2ccccc2)cc1)c1nnn[nH]1 (some centres not stated) | 87% | 110 nM | 
9 | SCC(Cc1ccc(-c2ccccc2)cc1)c1nnn[nH]1 (configuration not stated) | 26% |  | 
10 | O=P(O)(CCc1ccc2ccccc2c1)N[C@@H](Cc1ccc(-c2ccccc2)cc1)c1nnn[nH]1 | 0% |  | 
11 | O=C(O)c1n[nH]c([C@H](Cc2ccc(-c3ccccc3)cc2)NCP(=O)(O)O)n1 | 14% |  | 
12 | O=P(O)(O)CN[C@@H](Cc1ccc(-c2ccccc2)cc1)c1nc[nH]n1 | 0% |  | 
13 | CC(C)C[C@H](NP(=O)(O)O[C@@H]1O[C@@H](C)[C@H](O)[C@@H](O)[C@H]1O)C(=O)N[C@@H](Cc1c[nH]c2ccccc12)C(=O)O [PHOSPHORAMIDON] | 47% |  | 30 nM
14 | O=P(O)(O)C(Cc1cccc2cccnc12)N[C@@H](Cc1ccc(-c2ccccc2)cc1)c1nnn[nH]1 (some centres not stated) | 93% | 23 nM | 
15 | O=P(O)(O)C(Cc1cccc2ccccc12)N[C@@H](Cc1ccc(-c2ccccc2)cc1)c1nnn[nH]1 (some centres not stated) | 95% | 17 nM | 
16 | O=P(O)(O)CCC(Cc1ccc(-c2ccccc2)cc1)c1nnn[nH]1 (configuration not stated) | 0% |  | 

Row | SMILES | inhibition [1] | IC50 [2] | IC50 [3]
17 | O=P(O)(O)C(Cc1cccc2cccnc12)N[C@H](Cc1ccc(-c2ccccc2)cc1)c1nnn[nH]1 (some centres not stated) | 22% | > 1000 nM | 
18 | O=C(O)CNC(=O)C(CS)Cc1ccccc1 (configuration not stated) [THIORPHAN] | 9% | > 100000 nM | 
19 | O=P(O)(O)C(Cc1cccc2c1OCO2)N[C@H](Cc1ccc(-c2ccccc2)cc1)c1nnn[nH]1 (some centres not stated) | 50% | 1100 nM | 
20 | O=P(O)(O)C(N[C@H](Cc1ccc(-c2ccccc2)cc1)c1nnn[nH]1)c1cccc2ccccc12 (some centres not stated) | 49% | > 1000 nM | 
21 | O=P(O)(O)C(Cc1ccccc1)N[C@H](Cc1ccc(-c2ccccc2)cc1)c1nnn[nH]1 (some centres not stated) | 18% | 5000 nM | 
22 | O=C(O)[C@H](Cc1ccc(-c2ccccc2)cc1)NCP(=O)(O)O | 20% |  | 
23 | O=P(O)(O)CN[C@@H](Cc1ccc(-c2ccccc2)cc1)c1nnn[nH]1 |  | 410 nM | 
24 | O=P(O)(O)CN[C@@H](Cc1ccc2ccccc2c1)c1nnn[nH]1 | 0% |  | 
25 | O=P(O)(O)CN[C@@H](Cc1ccc(-c2ccccc2)cc1)c1nn[nH]n1 | 79% |  | 
26 | O=P(O)(O)C(Cc1ccc2c(c1)OCO2)N[C@H](Cc1ccc(-c2ccccc2)cc1)c1nnn[nH]1 (some centres not stated) | 76% | 390 nM | 
27 | O=P(O)(O)C(Cc1ccc2c(c1)OCO2)N[C@@H](Cc1ccc(-c2ccccc2)cc1)c1nnn[nH]1 (some centres not stated) | 85% | 93 nM | 
28 | O=P(O)(O)CN[C@@H](CCc1ccccc1)c1nnn[nH]1 | 0% |  | 
29 | O=P(O)(O)CN[C@@H](Cc1ccccc1)c1nnn[nH]1 | 0% |  | 
30 | O=P(O)(O)CN[C@@H](Cc1c[nH]c2ccccc12)c1nnn[nH]1 | 10% |  | 
31 | O=P(O)(O)C(Cc1ccccc1)N[C@@H](Cc1ccc(-c2ccccc2)cc1)c1nnn[nH]1 (some centres not stated) | 83% | 280 nM | 
